# “And” between values parts separate entries of the source, which are not always exact repeats. Equal entries are not always repeated.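 Step 1: Grow cells in 96-well plates. Step 2: Expose to compound for 48 hours at 5 concentrations. Step 3: Interpolate endpoints linearly; if unreached, use highest concentration. GI50: concentration for 50% inhibition of growth. TGI: concentration producing complete growth inhibition.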
# What was measured:
# Test in all cases: NCI-60 cell line screen, 48 h
# HT29 colon = test system: HT29 colon
# 786-0 renal = test system: 786-0 renal
# SW-620 colon = test system: SW-620 colon
# SN12C renal = test system: SN12C renal
# NCI/ADR-RES ovarian = test system: NCI/ADR-RES ovarian
# A498 renal = test system: A498 renal
# LOX IMVI melanoma = test system: LOX IMVI melanoma
# MALME-3M melanoma = test system: MALME-3M melanoma
# ACHN renal = test system: ACHN renal
# SF-539 CNS = test system: SF-539 CNS
SMILES,GI50 (HT29 colon),TGI (HT29 colon),TGI (786-0 renal),TGI (SW-620 colon) [µM],TGI (SN12C renal) [µM],TGI (NCI/ADR-RES ovarian),TGI (A498 renal),TGI (LOX IMVI melanoma),TGI (MALME-3M melanoma),TGI (ACHN renal) [µM],TGI (SF-539 CNS),GI50 (SW-620 colon),GI50 (SN12C renal),GI50 (NCI/ADR-RES ovarian),GI50 (LOX IMVI melanoma),GI50 (ACHN renal)
COc1ccc(-c2c(C#N)c(N)n(C3OC(COC(C)=O)C(OC(C)=O)C(OC(C)=O)C3OC(C)=O)c(=S)c2C#N)cc1 (configuration not stated),84.7 µM and 36.2 µM,> 100 µM,> 100 µM and 75.5 µM,> 100,> 100,> 100 µM,91.4 µM and 63.5 µM,> 100 µM,> 100 µM and 75.7 µM,> 100,67.5 µM and > 100 µM,,,,,
C=CCOC1=C(OC(C)=O)C(C2COC(C)(C)O2)OC1=O (configuration not stated),,38.4 µM,37.4 µM,32.7,70.8,> 100 µM,> 100 µM,24 µM,35.1 µM,32.5,> 100 µM,,,,,
CCN(CC)C(=O)CCNC(C)Cc1c[nH]c2ccccc12 (configuration not stated),,> 100 µM,> 100 µM,> 100,> 100,> 100 µM,> 100 µM,> 100 µM,> 100 µM,> 100,> 100 µM,,,,,
CCOc1ccnc2c(OC)c(C)c3nc4ccccc4nc3c12,,> 100 µM,> 100 µM,> 100,> 100,> 100 µM,> 100 µM,> 100 µM,> 100 µM,> 100,> 100 µM,,,,,
Cc1nc2ccccc2n1Cc1ccc(NC(=S)NC2CCCCC2)cc1,,> 100 µM,> 100 µM,> 100,> 100,> 100 µM,> 100 µM,> 100 µM,> 100 µM,44.4,> 100 µM,,,,,
CCOC1=NC(C(F)(F)F)(C(F)(F)F)N=C(/N=C(/N)N(C)C(C(C)C)P(=O)(OC(C)C)OC(C)C)O1 (configuration not stated),,> 100 µM,> 100 µM,> 100,> 100,> 100 µM,> 100 µM,> 100 µM,> 100 µM,> 100,> 100 µM,,,,,
COc1ccc(/C=C2/C(=O)C(c3ccccc3)N(c3ccccc3)C2=O)cc1OC (configuration not stated),,> 10 µM,> 10 µM,> 10,> 10,> 10 µM,2.75 µM,> 10 µM,> 10 µM,> 10,> 10 µM,,,,,
CCOC(=O)CCNC(=O)c1cc(C)cc2c1Oc1c(cc(C)cc1C(=O)NCCC(=O)OCC)S2,,> 100 µM,> 100 µM,> 100,> 100,> 100 µM,90.8 µM,> 100 µM,> 100 µM,> 100,> 100 µM,,,,,
O=C1CSC2(CC(/C=C/c3ccccc3[N+](=O)[O-])=NN2c2cccc(S(=O)(=O)O)c2)N1c1nc2ccccc2s1 (configuration not stated),,69.1 µM,22.5 µM,> 75,54.9,50.7 µM,38.7 µM,34.5 µM,> 75 µM,44.2,> 75 µM,,,,,
CC1=NN(c2cccc(S(=O)(=O)O)c2)C2(C1)SCC(=O)N2c1nc2ccccc2s1 (configuration not stated),,> 100 µM,> 100 µM,> 100,> 100,> 100 µM,> 100 µM,> 100 µM,> 100 µM,> 100,> 100 µM,,,,,
O=C1N(c2ccccc2)N=C2c3ccncc3C3=NN(c4ccccc4)C(=O)C123 (configuration not stated),,> 100 µM,> 100 µM,> 100,> 100,> 100 µM,> 100 µM,> 100 µM,> 100 µM,> 100,> 46.8 µM,,,,,
O=C(CCCN1CCC(Nc2ccc(F)cc2)(c2nnnn2C2CCCCC2)CC1)c1ccc(F)cc1,,> 100 µM,37.1 µM,> 100,> 100,46.9 µM,12.5 µM,> 100 µM,> 100 µM,28.6,30.5 µM,,,,,
O=[N+]([O-])C(=C(\Cl)NCCO)/C(Cl)=C(/Cl)Br,,3.67 µM,2.75 µM,2.68,5.77,7.42 µM,12 µM,2.19 µM,3.8 µM,8.9,6.15 µM,,,,,
CCOC(=O)C1=CN(Cc2ccccc2)C2ON=C(c3ccc(Cl)cc3)C2C1 (configuration not stated),,> 71.4 µM,> 69.5 µM,> 65.7,> 65.4,> 72.3 µM,> 56.8 µM,> 74.2 µM,> 71.8 µM,> 65.2,> 68.2 µM,,,,,
C[C@H](OC(=O)/C=C/c1ccc(O)c(O)c1)[C@H](C)OC(=O)/C=C/c1ccc(O)c(O)c1,,> 100 µM,20 µM,17.8,34,63.1 µM,51.7 µM,22.6 µM,31.9 µM,30.5,> 100 µM,,,,,
CC(=O)Oc1ccc(C2SCc3nc4ccccc4n32)cc1 (configuration not stated),,> 100 µM,> 100 µM,> 100,> 100,51.6 µM,73.8 µM,> 100 µM,> 100 µM,> 100,> 100 µM,,,,,
NC(=O)NC(=O)c1cccc(C(=O)NC(N)=O)n1,,> 100 µM,> 100 µM,> 100,> 100,> 100 µM,> 100 µM,> 100 µM,> 100 µM,> 100,> 100 µM,,,,,

SMILES,GI50 (HT29 colon),TGI (HT29 colon),TGI (786-0 renal),TGI (SW-620 colon) [µM],TGI (SN12C renal) [µM],TGI (NCI/ADR-RES ovarian),TGI (A498 renal),TGI (LOX IMVI melanoma),TGI (MALME-3M melanoma),TGI (ACHN renal) [µM],TGI (SF-539 CNS),GI50 (SW-620 colon),GI50 (SN12C renal),GI50 (NCI/ADR-RES ovarian),GI50 (LOX IMVI melanoma),GI50 (ACHN renal)
O=C(O)COc1cccc2ccccc(=O)c12,,> 100 µM,> 100 µM,> 100,> 100,> 100 µM,> 100 µM,> 100 µM,> 100 µM,> 100,> 100 µM,,,,,
Nc1nc(=O)n(C2CC(O)C(CO)O2)c2nc(-c3ccc(-c4ccccc4)cc3)cnc12 (configuration not stated),,> 100 µM,> 100 µM,> 100,> 100,> 100 µM,> 100 µM,> 100 µM,> 100 µM,> 100,> 100 µM,,,,,
COC(=O)C1=C(C(=O)OC)C2CCC1CC2=O (configuration not stated),,> 100 µM,> 100 µM,> 100,> 100,> 100 µM,> 100 µM,> 100 µM,> 100 µM,> 100,> 100 µM,,,,,
Cc1cn(C2CC(/[N+]([O-])=N\Nc3ccc([N+](=O)[O-])cc3)C(CO)O2)c(=O)[nH]c1=O (configuration not stated),,> 100 µM,> 100 µM,> 100,> 100,> 100 µM,> 100 µM,> 100 µM,> 100 µM,> 100,> 100 µM,,,,,
COc1ccc2oc(=O)c(-c3nc4ccccc4s3)cc2c1,,33.1 µM,20.5 µM,> 100,> 100,> 96 µM,54.2 µM,49.5 µM,28.2 µM,12.7,13.7 µM,,,,,
COC(=O)/C=C/[C@H]1[C@H](C)N1S(=O)(=O)c1ccc(C)cc1 (some centres not stated),,> 100 µM,> 100 µM,> 100,> 100,> 100 µM,> 100 µM,> 100 µM,> 100 µM,> 100,> 100 µM,,,,,
N#C[C@H](c1nc2ccccc2[nH]1)c1nc2ccccc2nc1Cl,,> 52.2 µM,> 100 µM,29.5,30.9,> 100 µM,> 60.6 µM,29.3 µM,31.7 µM,> 46,> 100 µM,,,,,
[B]C(=O)NC(CC(C)C)C(=O)NC1c2ccsc2C(=O)C1O (configuration not stated) (tested in a mixture with another compound),,> 100 µM,> 100 µM,> 100,> 100,> 100 µM,> 100 µM,> 100 µM,> 100 µM,> 100,> 100 µM,,,,,
O=C1CN2CCN(CC2)CC(=O)Nc2ccc(cc2)S(=O)(=O)c2ccc(cc2)NC(=O)CN2CCN(CC2)CC(=O)Nc2ccc(cc2)S(=O)(=O)c2ccc(cc2)N1,,51 µM,> 100 µM,50.7,> 100,> 87.3 µM,> 100 µM,> 100 µM,38.8 µM,> 100,49.2 µM,,,,,
CC1(C)C/C=C\CCC(O)C(O)CCC(C)(C)C1=O (configuration not stated),,> 100 µM,> 100 µM,> 100,> 100,> 100 µM,> 100 µM,> 100 µM,> 100 µM,> 100,> 100 µM,,,,,
Cc1ccc(S(=O)(=O)N/N=C2/C3CC4CCC2C4C3)cc1 (configuration not stated),,> 100 µM,> 100 µM,> 100,> 100,> 100 µM,> 100 µM,> 100 µM,> 100 µM,> 100,> 100 µM,,,,,
COc1ccc(OC/C(N=Cc2cccnc2)=N/NC(=O)c2ccncc2)cc1,,> 100 µM,> 100 µM,> 100,> 100,> 100 µM,> 100 µM,> 100 µM,> 100 µM,> 100,> 100 µM,,,,,
COc1ccc([C@H]2C=C(c3cc(F)c(Cl)cc3Cl)N=c3s/c(=C\c4ccc(-c5ccc(Cl)cc5Cl)o4)c(=O)n32)cc1,,> 100 µM,> 100 µM,> 100,> 100,> 100 µM,6.58 µM,> 100 µM,> 100 µM,> 100,> 100 µM,,,,,
O=CC1C(=O)Nc2nc3ccccc3n2C1c1ccccc1 (configuration not stated),,41.2 µM,24.9 µM,43.3,28.2,> 100 µM,28.8 µM,23.1 µM,53.7 µM,42.7,44.6 µM,,,,,
COC(=O)/C=C/c1cc(OC)c2c(c1)C(C(=O)OC)C(c1ccc(O)c(OC)c1)O2 (configuration not stated),16 µM and 9.17 µM and 3.77 µM,37.8 µM and 26.8 µM and 14.4 µM,> 100 µM and > 49.7 µM and 36.3 µM,> 100,> 100,> 33.9 µM and 26.6 µM and 12.9 µM,> 65.4 µM and > 100 µM and 77.3 µM,> 100 µM and 22.3 µM and 25.3 µM,> 100 µM and 37.4 µM,> 100,9.24 µM and 8.25 µM and 10.4 µM,2.93 µM and 1.45 µM and 1.46 µM,13.9 µM and 9.44 µM and 4.63 µM,3.4 µM and 2.76 µM and 1.68 µM,7.16 µM and 4.36 µM and 1.04 µM,> 26.2 µM and 15.9 µM and 7.59 µM
c1ccc2c[n+](Cc3ccnc4ccccc34)ccc2c1,,> 100 µM,> 100 µM,> 100,> 100,> 100 µM,> 100 µM,> 100 µM,> 100 µM,> 100,> 100 µM,,,,,
O=C(CN1CCOCC1)c1ccc2c(c1)oc(=O)n2CCN1CCCCC1,,> 100 µM,> 100 µM,> 100,> 100,> 100 µM,> 100 µM,> 100 µM,> 100 µM,> 100,> 100 µM,,,,,

# From PubChem BioAssay (NCI)
